Source: patent US5283248A, “Amino substituted pyrimido[1,6-2]benzimidazoles” (priority 1989, dated 1994)

How the values were obtained:
DNA-gyrase = target: T1, DNA-gyrase (Escherichia coli, UniProt P0AES4+P0AES6); assay: DNA-gyrase inhibition, supercoiling method (relaxed pUC18 or pUC19 plasmid DNA as substrate); assay type: biochemical; conditions: E. coli DNA-gyrase
T1 construct: made in house; host or cells: E. coli N4186 and E. coli MK47
From the text: The inhibitory action on the DNA-gyrase activity in bacteria can be determined, for example, by means of the supercoiling method described by R. Otter and N. R. Cozzarelli in Methods in Enzymology, Vol. 100, pp. 171-180 (1983). The DNA-gyrase used was isolated from E. coli N4186 and from the sub-unit B of E. coli MK47 (Mitsuchi et al., JBL 159, 9199-9201 (1984)). Relaxed pUC18 or pUC19 plasmid DNA was used as the substrate. The results determined in this test are compiled in the following Table, with the results being expressed as the MNC (maximum non-effective concentration) in μg/ml.

Toxicity, LD50 = conditions: in vivo

T1 sequence (P0AES4 whole entry, one chain of several): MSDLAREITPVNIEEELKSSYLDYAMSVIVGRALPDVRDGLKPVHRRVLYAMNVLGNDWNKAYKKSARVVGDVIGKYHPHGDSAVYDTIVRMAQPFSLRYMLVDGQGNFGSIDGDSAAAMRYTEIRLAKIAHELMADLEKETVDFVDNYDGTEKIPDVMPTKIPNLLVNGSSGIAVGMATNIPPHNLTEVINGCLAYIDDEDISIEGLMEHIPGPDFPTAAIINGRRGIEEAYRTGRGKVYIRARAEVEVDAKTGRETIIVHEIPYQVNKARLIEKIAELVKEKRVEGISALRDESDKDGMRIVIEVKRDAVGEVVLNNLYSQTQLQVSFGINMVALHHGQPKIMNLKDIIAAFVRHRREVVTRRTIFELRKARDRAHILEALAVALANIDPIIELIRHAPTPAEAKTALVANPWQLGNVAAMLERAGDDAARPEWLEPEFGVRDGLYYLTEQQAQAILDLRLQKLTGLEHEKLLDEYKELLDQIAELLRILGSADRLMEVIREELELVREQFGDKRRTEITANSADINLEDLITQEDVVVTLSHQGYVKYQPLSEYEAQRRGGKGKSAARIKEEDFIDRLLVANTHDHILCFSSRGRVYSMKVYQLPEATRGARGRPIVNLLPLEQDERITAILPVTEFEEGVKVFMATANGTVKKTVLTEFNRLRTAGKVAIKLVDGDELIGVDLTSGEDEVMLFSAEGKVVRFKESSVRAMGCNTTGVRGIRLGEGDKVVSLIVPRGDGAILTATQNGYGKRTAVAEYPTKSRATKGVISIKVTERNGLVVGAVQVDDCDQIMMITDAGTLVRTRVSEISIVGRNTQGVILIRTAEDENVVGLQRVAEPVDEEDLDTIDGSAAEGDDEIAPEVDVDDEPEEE

SMILES | Activity MNC (maximum non-effective concentration) (DNA-gyrase) [µg/mL] | LD50 (Toxicity, LD50; iv) [mg/kg] | LD50 (Toxicity, LD50; po) [mg/kg]
O=C(O)C(F)(F)F.O=c1cc2n(C3CC3)c3cc(N4CCNCC4)c(F)cc3n2c(=O)[nH]1 [Example 2, 5-cyclopropyl-8-fluoro-7-(1-piperazinyl)-pyrimido[1,6-a]benzimidazole-1,3(2H,5H)-dione trifluoroacetate] | 0.45 | 30 | > 2000
Cl.O=c1cc2n(C3CC3)c3cc(N4CCNCC4)c(F)cc3n2c(=O)n1O [Example 4, 5-cyclopropyl-8-fluoro-2-hydroxy-7-(1-piperazinyl)-pyrimido[1,6-a]benzimidazole-1,3(2H,5H)-dione hydrochloride] | 2 | 30 | > 4000
CCn1c2cc(N3CCN(C)CC3)c(F)cc2n2c(=O)[nH]c(=O)cc12 [Example 1, 5-ethyl-8-fluoro-7-(4-methyl-1-piperazinyl)pyrimido[1,6-a]benzimidazole-1,3(2H,5H)-dione] | 2 | – | –
CCn1c2cc(N3CCNCC3)c(F)cc2n2c(=O)[nH]c(=O)cc12 [Example 8, 5-ethyl-8-fluoro-7-(1-piperazinyl)pyrimido[1,6-a]benzimidazole-1,3(2H,5H)-dione] | 1 | – | –
CCn1c2cc(N3CCN(C)CC3)c(F)cc2n2c(=O)[nH]c(=S)cc12 [Example 3] | 2 | – | –
